# In PubChem BioAssay (NCI):
#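 Five compound concentrations were applied to cells in 96-well plates for 48 hours; endpoints were derived by simple linear interpolation of the resulting dose-response curve. At the TGI there is no net growth.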
# What was measured:
# Experiment in all cases: NCI tumour cell line growth inhibition, 48 h
# UACC-62 melanoma = test system: UACC-62 melanoma
# HCT-15 colon = test system: HCT-15 colon
# LOX IMVI melanoma = test system: LOX IMVI melanoma
# MOLT-4 leukemia = test system: MOLT-4 leukemia
# HCC-2998 colon = test system: HCC-2998 colon
# KM12 colon = test system: KM12 colon
# EKVX NSCLC = test system: EKVX NSCLC
# SK-OV-3 ovarian = test system: SK-OV-3 ovarian
# A498 renal = test system: A498 renal
# SK-MEL-2 melanoma = test system: SK-MEL-2 melanoma
Compound,TGI (UACC-62 melanoma),TGI (HCT-15 colon),TGI (LOX IMVI melanoma),TGI (MOLT-4 leukemia),TGI (HCC-2998 colon),TGI (KM12 colon),TGI (EKVX NSCLC),TGI (SK-OV-3 ovarian),TGI (A498 renal),TGI (SK-MEL-2 melanoma)
CCCCCCCCCCCCCCNC(=O)CCC(NC(=O)c1ccc(N(C)Cc2cnc3nc(N)nc(N)c3n2)cc1)C(=O)NCCCCCCCCCCCCCC (stereo not given),22.2 µM,28.2 µM,> 100 µM,27.3 µM,19.8 µM,18 µM,> 100 µM,28.3 µM,34.5 µM,> 61.9 µM
Cc1ccccc1C(=O)N1CCc2c([nH]c3ccccc23)C1,31.6 µM,62.1 µM,50.2 µM,80 µM,33.9 µM,87 µM,75 µM,> 100 µM,51.4 µM,27 µM
COC(=O)C([C@H](NC1(c2ccccc2)c2ccccc2-c2ccccc21)C(=O)OC)N(NC(=O)OCc1ccccc1)C(=O)OCc1ccccc1 (mixture of isomers),> 100 µM,> 100 µM,> 100 µM,> 100 µM,> 100 µM,> 100 µM,> 100 µM,> 100 µM,> 100 µM,> 100 µM
Cc1ccc([N+](=O)[O-])cc1NC1=NCCO1,> 100 µM,> 100 µM,> 100 µM,> 100 µM,> 100 µM,> 100 µM,> 100 µM,> 100 µM,> 100 µM,> 100 µM
C[C@@H]1CC[C@]2(C(=O)O)CC[C@]3(C)C(=CC[C@@H]4[C@@]5(C)CC[C@H](O)C(C)(C)[C@@H]5CC[C@]43C)[C@@H]2[C@]1(C)O,10.1 µM,24.2 µM,29.5 µM,18.3 µM,29.2 µM,26.7 µM,33 µM,31.8 µM,33.3 µM,31.8 µM
CC(=O)NC(Cc1ccc(O)cc1)C(=O)O (stereo not given),> 100 µM,> 100 µM,> 100 µM,> 100 µM,> 100 µM,> 100 µM,> 100 µM,> 100 µM,> 100 µM,> 100 µM
CCOC(=O)C(SCCO)C(C(=O)OCC)n1cnc2c(=O)[nH]c(NC(C)=O)nc21 (stereo not given),> 100 µM,> 100 µM,> 100 µM,> 100 µM,> 100 µM,> 100 µM,> 100 µM,> 100 µM,> 100 µM,> 100 µM
c1ccc(N=c2sc3ccccc3nc2Nc2ccccc2)cc1,> 100 µM,> 100 µM,> 100 µM,> 100 µM,> 100 µM,> 100 µM,> 100 µM,> 100 µM,> 100 µM,> 100 µM
CC1(C)N=[N+]([O-])C1(C)C,> 100 µM,> 100 µM,> 100 µM,> 100 µM,> 100 µM,> 100 µM,> 100 µM,> 100 µM,> 100 µM,> 100 µM
CCCCC#C[I+]c1ccccc1,33 µM,30 µM,26.9 µM,23.9 µM,34.4 µM,27.7 µM,33.4 µM,30.4 µM,48.2 µM,34.1 µM
C[C@@H](NC(=O)[C@@H]1C[C@]1(C)COC(=O)c1cc([N+](=O)[O-])cc([N+](=O)[O-])c1)c1cccc2ccccc12,> 100 µM,> 100 µM,> 100 µM,> 100 µM,> 100 µM,> 100 µM,> 100 µM,> 100 µM,> 100 µM,> 100 µM
N#Cc1c(N2CCCC2)ncn(-c2ccccc2)c1=O,> 100 µM,> 100 µM,> 100 µM,> 100 µM,> 100 µM,> 100 µM,> 100 µM,> 100 µM,> 100 µM,> 100 µM
O=C(N/N=C(/COc1ccc(Cl)cc1)N=Cc1ccncc1)c1ccncc1,> 100 µM,> 100 µM,> 100 µM,> 100 µM,> 100 µM,> 100 µM,> 100 µM,> 100 µM,> 100 µM,> 100 µM
C=CCN1C[C@H](C)N([C@H](c2ccc(C(=O)NC(CC)CC)cc2)c2cccc(OC)c2)C[C@H]1C,51.1 µM,> 100 µM,58.6 µM,> 100 µM,> 100 µM,> 100 µM,> 100 µM,> 100 µM,63.3 µM,46.1 µM
COc1ccc(N/N=C2\CCOc3ccc(C)cc3C2=O)cc1,80.4 µM,48.7 µM,30.9 µM,85.4 µM,97.5 µM,> 100 µM,> 100 µM,80.2 µM,> 100 µM,46 µM
CC1(C)OC(=O)N(c2ccccc2)C12C=Cc1cc([N+](=O)[O-])cc([N+](=O)[O-])c1O2 (stereo not given),> 100 µM,> 100 µM,> 100 µM,> 100 µM,> 100 µM,> 100 µM,> 100 µM,> 100 µM,> 100 µM,> 100 µM
